Measurements from the supplement of paper PMC10307832.

Key:
Assay in all cases: relative viability (nuclei count vs DMSO), 5 days (fraction); higher = more cells survive
[1] = compound: COC1=CC=C(C=C1)CN2C=CC3=C2C=C(C=C3)C(=O)NO + CC(C)C[C@H](NC(=O)[C@H](Cc1ccccc1)NC(=O)c1cnccn1)B(O)O [Bortezomib] (partner 0.002 µM)
Summary of the method: (§1)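 After 5 days of treatment, lung cancer cells in 1536-well plates were fixed and stained in a single step (final 0.05% Triton X-100, 1% formaldehyde, 1 ug/ml Hoechst) and their nuclei counted on 4× images. Treatment had been applied by pin tool the day after seeding as one drug alone or as a fixed anchor-drug dose with five library-drug doses (not always all listed) in √10 steps. Relative viability is the nuclei count of treated wells divided by that of vehicle wells, and values are medians of duplicate plates.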

[2] = compound: COC1=CC=C(C=C1)CN2C=CC3=C2C=C(C=C3)C(=O)NO + CC1(C)CCC(c2ccc(Cl)cc2)=C(CN2CCN(c3ccc(C(=O)NS(=O)(=O)c4ccc(N[C@H](CCN5CCOCC5)CSc5ccccc5)c(S(=O)(=O)C(F)(F)F)c4)cc3)CC2)C1 [Navitoclax] (partner 0.5 µM)
Summary of the method: as §1

[3] = compound: COC1=CC=C(C=C1)CN2C=CC3=C2C=C(C=C3)C(=O)NO + C[C@]1(O)C[C@@H](c2nc(-c3ccc4ccc(-c5ccccc5)nc4c3)c3c(N)nccn32)C1 [Linsitinib] (partner 1 µM)
Summary of the method: as §1

[4] = compound: C[C@]1(c2nc3c(C(N)=O)cccc3[nH]2)CCCN1 [Veliparib] + Cc1nc(NC(=O)N2CCC[C@H]2C(N)=O)sc1-c1ccnc(C(C)(C)C(F)(F)F)c1 [Alpelisib] (partner 2 µM)
Summary of the method: as §1

SW 1573 gave a relative viability ([1]; first compound 0.253 µM) of 1.18, a relative viability ([1]; first compound 0.8 µM) of 1.15 and a relative viability ([1]; first compound 2.53 µM) of 1.13. For the same cell line, the relative viability ([1]; first compound 8 µM) was 0.906, the relative viability ([2]; first compound 0.253 µM) was 0.943 and the relative viability ([2]; first compound 0.8 µM) was 1.19. It also gave a relative viability ([2]; first compound 2.53 µM) of 0.961, a relative viability ([2]; first compound 8 µM) of 0.946 and a relative viability ([3]; first compound 0.253 µM) of 0.835. The relative viability ([3]; first compound 0.8 µM) was 0.761, the relative viability ([3]; first compound 2.53 µM) was 0.666 and the relative viability ([3]; first compound 8 µM) was 0.514. It also gave a relative viability ([4]; first compound 0.02 µM) of 0.803, a relative viability ([4]; first compound 0.06325 µM) of 0.867 and a relative viability ([4]; first compound 0.2 µM) of 0.791. It also gave a relative viability ([4]; first compound 0.6325 µM) of 0.675 and a relative viability ([4]; first compound 2 µM) of 0.805.
